22 compounds from patent US11534443B2, “Quinazoline compounds, preparation method, use, and pharmaceutical composition thereof” (INSTITUTE OF MATERIA MEDICA, CHINESE ACADEMY OF MEDICAL …, priority 2016, dated 2022) can be followed below.

The target of assay [1] is PI3Kα (Homo sapiens (Human), UniProt P42336). The assay can be described thus: Biochemical evaluation of activity of PI3Kα (Kinase-Glo luminescence kinase assay). The following applies: 25 μM ATP, 50 μM PIP2, 1 h at room temperature. The protocol:
The potency of compounds in the present intention against PI3Kα was assessed by in vitro kinase assay. The kinase activity of PI3Kα was determined by detecting the level of ADP produced in the kinase reaction with luciferase-based luminescence detection.
The Kinase-Glo™ Kinase Assay Kit was purchased from Promega. All assays were performed at room temperature using white OptiPlate™-384 well plate. The PI3Kα kinase was purchased from Invitrogen. The substrate was PIP2 from Invitrogen. The kinase buffer contained 50 mM Hepes (pH 7.5), 3 mM MgCl2, 100 mM NaCl, 1 mM EGTA, 0.03% CHAPS and 2 mM DTT. […] The substrate solution contained 100 μM PIP2 and 50 μM ATP. The test compound was diluted to 10 mM in 100% DMSO and serially diluted three times into ten different concentrations in 100% DMSO. The compound diluted in 100% DMSO was diluted 25-fold in 1×kinase buffer. 2.5 μL of the diluted compound solution and 2.5 μL PI3Kα kinase solution were added to each well of a 384-well plate. The reaction was initiated by addition of 5 μL substrate solution to each well. […] The plate was then covered and the reaction was allowed to proceed for one hour at room temperature, followed by the addition of 10 μL Kinase-Glo™ reagent to each well to stop the reaction.
The percentage of inhibition was calculated as follows: Inhibition %=100−(max−sample RLU)/(max−min)*100
wherein sample RLU was the luminescence reading for a given compound concentration, min was the reading of DMSO control, and max was the reading of the enzyme-free control. The IC50 value was calculated with the XLfit program in Excel.

Assay [2] deals with human lung cancer cell NCI-H460. Put plainly: Tumor cell viability by MTT assay. The format is cell-based. The following applies: Homo sapiens, NCI-H460, 96 h. The protocol:
After 24 hours, 100 μL of fresh medium containing different concentrations of test compounds and the corresponding solvent control was added into each well to a final concentration of DMSO less than 0.2%. Six to nine concentration groups were set for each test compound, and three parallel wells were set for each group. The plate was incubated at 5% CO2, 37° C. for 96 hours. 20 μL of freshly prepared PBS solution containing 5 mg/mL MTT was added to each well. The supernatant was discarded after incubation for another 4 hours. 150 μL DMSO was added to each well to dissolve the MTT formazan precipitate. After being mixed by a micro-oscillator, the optical density (OD) was measured at the wavelength of 570 nm, and the tumor cells treated with DMSO were used as a control group.
Background: Formazan colour is commonly taken as a measure of viable cells.

Structures are written as SMILES. pIC50: −log10 of the molar value.

Sequence of PI3Kα (P42336 whole entry): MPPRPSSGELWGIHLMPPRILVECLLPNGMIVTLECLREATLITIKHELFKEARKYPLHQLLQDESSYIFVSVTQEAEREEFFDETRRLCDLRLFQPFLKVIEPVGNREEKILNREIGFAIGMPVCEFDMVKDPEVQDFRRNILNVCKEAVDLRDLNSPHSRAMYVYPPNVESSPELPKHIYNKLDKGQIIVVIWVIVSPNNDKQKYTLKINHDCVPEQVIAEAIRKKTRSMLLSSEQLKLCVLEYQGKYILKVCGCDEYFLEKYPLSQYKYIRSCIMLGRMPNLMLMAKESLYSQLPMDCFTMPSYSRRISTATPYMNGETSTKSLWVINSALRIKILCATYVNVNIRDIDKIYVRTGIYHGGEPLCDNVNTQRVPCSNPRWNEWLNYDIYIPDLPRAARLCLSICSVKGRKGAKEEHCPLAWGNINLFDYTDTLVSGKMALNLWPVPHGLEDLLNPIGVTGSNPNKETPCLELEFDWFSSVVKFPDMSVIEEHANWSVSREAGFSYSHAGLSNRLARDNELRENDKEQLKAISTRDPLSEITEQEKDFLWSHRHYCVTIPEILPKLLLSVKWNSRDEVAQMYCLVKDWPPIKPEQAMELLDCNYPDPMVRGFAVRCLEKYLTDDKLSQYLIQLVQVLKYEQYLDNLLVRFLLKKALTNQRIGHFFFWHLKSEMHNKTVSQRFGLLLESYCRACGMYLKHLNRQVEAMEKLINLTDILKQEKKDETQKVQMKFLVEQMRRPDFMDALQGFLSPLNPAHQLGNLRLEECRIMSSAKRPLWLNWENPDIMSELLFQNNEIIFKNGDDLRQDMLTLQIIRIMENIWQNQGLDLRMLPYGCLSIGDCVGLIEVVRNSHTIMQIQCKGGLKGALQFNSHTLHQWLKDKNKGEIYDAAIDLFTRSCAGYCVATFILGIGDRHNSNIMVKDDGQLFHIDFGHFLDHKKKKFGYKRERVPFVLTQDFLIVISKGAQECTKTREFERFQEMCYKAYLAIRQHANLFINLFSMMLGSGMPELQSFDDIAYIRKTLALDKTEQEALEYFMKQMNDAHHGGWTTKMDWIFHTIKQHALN
Sequence of PI3Kα (P27986 whole entry partner): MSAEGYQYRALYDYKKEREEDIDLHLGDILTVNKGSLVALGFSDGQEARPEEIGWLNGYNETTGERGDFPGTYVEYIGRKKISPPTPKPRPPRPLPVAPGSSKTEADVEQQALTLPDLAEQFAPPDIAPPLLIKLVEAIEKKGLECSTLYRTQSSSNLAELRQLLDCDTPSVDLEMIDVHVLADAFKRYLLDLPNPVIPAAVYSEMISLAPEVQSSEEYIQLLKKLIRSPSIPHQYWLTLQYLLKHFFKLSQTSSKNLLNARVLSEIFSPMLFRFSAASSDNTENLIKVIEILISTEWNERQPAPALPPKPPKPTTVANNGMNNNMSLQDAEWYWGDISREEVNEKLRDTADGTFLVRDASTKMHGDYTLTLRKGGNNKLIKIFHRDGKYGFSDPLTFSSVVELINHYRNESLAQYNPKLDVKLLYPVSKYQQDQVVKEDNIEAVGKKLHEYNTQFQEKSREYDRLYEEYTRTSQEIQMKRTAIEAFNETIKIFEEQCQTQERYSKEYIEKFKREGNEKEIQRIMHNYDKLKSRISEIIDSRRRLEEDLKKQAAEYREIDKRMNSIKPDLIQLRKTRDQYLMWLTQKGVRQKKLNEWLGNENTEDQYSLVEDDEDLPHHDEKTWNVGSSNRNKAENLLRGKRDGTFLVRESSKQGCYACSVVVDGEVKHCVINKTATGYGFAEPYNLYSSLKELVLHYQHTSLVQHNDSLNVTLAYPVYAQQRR

For the compound `COc1ncc(-c2cc(OC3CCOCC3)c3nc(NCC4CC4)nc(C)c3c2)cc1NS(=O)(=O)c1ccc(F)cc1F` [Example 31, N-(5-(2-((cyclopropylmethyl)amino)-4-methyl-8-((tetrahydro-2H-pyran-4-yl)oxy)quinazolin-6-yl)-2-methoxypyridin-3-yl)-2,4-difluorobenzenesulfonamide], the pIC50 (as a rule, −log10 of the IC50, conventionally taken in molar units) is 8.42 in assay [1] and 6.39 in assay [2].
For `CNc1nc(C)c2cc(-c3cnc(OC)c(NS(=O)(=O)c4ccc(F)cc4Cl)c3)cc(O[C@@H]3CCOC3)c2n1` [Example 33, (R)—N-(2-methoxy-5-(4-methyl-2-(methylamino)-8-((tetrahydrofuran-3-yl)oxy)quinazolin-6-yl)pyridin-3-yl)-2-chloro-4-fluorobenzenesulfonamide] the same measures were 8.77 and 7.00.
On the same counts, the results for `CNc1nc(C)c2cc(-c3cnc(OC)c(NS(=O)(=O)c4ccc(Cl)s4)c3)cc(O[C@@H]3CCOC3)c2n1` [Example 34, (R)—N-(2-methoxy-5-(4-methyl-2-(methylamino)-8-((tetrahydrofuran-3-yl)oxy)quinazolin-6-yl)pyridin-3-yl)-5-chlorothiophene-2-sulfonamide] are 8.80 and 6.96.
On the same counts, the results for `CNc1nc(C)c2cc(-c3cnc(OC)c(NS(=O)(=O)c4ccc(F)cc4F)c3)cc(OCC3CCOCC3)c2n1` [Example 36, N-(2-methoxy-5-(4-methyl-2-(methylamino)-8-((tetrahydro-2H-pyran-4-yl)methoxy)quinazolin-6-yl)pyridin-3-yl)-2,4-difluoro-benzenesulfonamide] are 8.66 and 6.40.
On to `CNc1nc(C)c2cc(-c3cnc(OC)c(NS(=O)(=O)c4ccc(F)cc4F)c3)cc(OC3CCOC(C)(C)C3)c2n1` (centres unmarked) [Example 37, N-(5-(8-((2,2-dimethyltetrahydro-2H-pyran-4-yl)oxy)-4-methyl-2-(methylamino)quinazolin-6-yl)-2-methoxypyridin-3-yl)-2,4-difluorobenzenesulfonamide], for which the pIC50 is 8.64 in assay [1] and 6.60 in assay [2].
On the same counts, the results for `CNc1nc(C)c2cc(-c3cnc(OC)c(NS(=O)(=O)c4ccc(F)cc4F)c3)cc(OCC3CCOC3)c2n1` (centres unmarked) [Example 38, N-(2-methoxy-5-(4-methyl-2-(methylamino)-8-((tetrahydrofuran-3-yl)methoxy)quinazolin-6-yl)pyridin-3-yl)-2,4-difluorobenzenesulfonamide] are 8.64 and 6.51.
On the same counts, the results for `CNc1nc(C)c2cc(-c3cnc(OC)c(NS(=O)(=O)c4ccc(F)cc4F)c3)cc(OC3CCCCC3)c2n1` [Example 39, N-(5-(8-(cyclohexyloxy)-4-methyl-2-(methylamino)quinazolin-6-yl)-2-methoxypyridin-3-yl)-2,4-difluorobenzenesulfonamide] are 7.82 and 5.77.
On the same counts, the results for `COc1ncc(-c2cc(OC3CCOCC3)c3nc(NC(C)=O)nc(C)c3c2)cc1NS(=O)(=O)c1ccc(F)cc1F` [Example 42, N-(6-(5-(2,4-difluorophenylsulfonamido)-6-methoxypyridin-3-yl)-4-methyl-8-((tetrahydro-2H-pyran-4-yl)oxy)quinazolin-2-yl)acetamide] are 8.96 and 6.28.
Regarding `COc1ncc(-c2cc(OC3CCOCC3)c3nc(NC(C)=O)nc(C)c3c2)cc1NS(C)(=O)=O` [Example 43, N-(6-(6-methoxy-5-(methylsulfonamido)pyridin-3-yl)-4-methyl-8-((tetrahydro-2H-pyran-4-yl)oxy)quinazolin-2-yl)acetamide], the values for the pIC50 in assay [1] and in assay [2] were 8.00 and 5.40, respectively.
As for `COc1ncc(-c2cc(OC3CCOCC3)c3ncnc(C)c3c2)cc1NS(=O)(=O)c1ccc(F)cc1Cl` [Example 45, N-(2-methoxy-5-(4-methyl-8-((tetrahydro-2H-pyran-4-yl)oxy)quinazolin-6-yl)pyridin-3-yl)-2-chloro-4-fluorobenzenesulfonamide], the pIC50 in assay [1] is 9.04; in assay [2], 7.35.
On the same counts, the results for `COc1ncc(-c2cc(OC3CCOCC3)c3ncnc(C)c3c2)cc1NS(=O)(=O)c1ccc(Cl)s1` [Example 46, N-(2-methoxy-5-(4-methyl-8-((tetrahydro-2H-pyran-4-yl)oxy)quinazolin-6-yl)pyridin-3-yl)-5-chlorothiophene-2-sulfonamide] are 9.15 and 7.54.
For `COc1ncc(-c2cc(OC3CCOCC3)c3ncnc(C)c3c2)cc1NS(C)(=O)=O` [Example 47, N-(2-methoxy-5-(4-methyl-8-((tetrahydro-2H-pyran-4-yl)oxy)quinazolin-6-yl)pyridin-3-yl)methanesulfonamide] the same measures were 8.85 and 6.24.
Turning to `COc1ncc(-c2cc(OC3CCOCC3)c3ncnc(C)c3c2)cc1NS(=O)(=O)C1CC1` [Example 48, N-(2-methoxy-5-(4-methyl-8-((tetrahydro-2H-pyran-4-yl)oxy)quinazolin-6-yl)pyridin-3-yl)cyclopropanesulfonamide], the pIC50 in assay [1] was 8.68; in assay [2] it was 6.55.
For `COc1ncc(-c2cc(O[C@@H]3CCOC3)c3ncnc(C)c3c2)cc1NS(=O)(=O)c1ccc(F)cc1F` [Example 49, (R)—N-(2-methoxy-5-(4-methyl-8-((tetrahydrofuran-3-yl)oxy)quinazolin-6-yl)pyridin-3-yl)-2,4-difluorobenzenesulfonamide] the same measures were 9.12 and 7.47.
`COc1ncc(-c2cc(O[C@@H]3CCOC3)c3ncnc(C)c3c2)cc1NS(C)(=O)=O` [Example 50, (R)—N-(2-methoxy-5-(4-methyl-8-((tetrahydrofuran-3-yl)oxy)quinazolin-6-yl)pyridin-3-yl)methanesulfonamide]: the values for the pIC50 in assay [1] and in assay [2] were 8.66 and 6.10, respectively.
For `COc1ncc(-c2cc(O[C@H]3CCOC3)c3ncnc(C)c3c2)cc1NS(=O)(=O)c1ccc(F)cc1F` [Example 51, (S)—N-(2-methoxy-5-(4-methyl-8-((tetrahydrofuran-3-yl)oxy)quinazolin-6-yl)pyridin-3-yl)-2,4-difluorobenzenesulfonamide] the same measures were 9.14 and 7.49.
For `COc1ncc(-c2cc(O[C@H]3CCOC3)c3ncnc(C)c3c2)cc1NS(C)(=O)=O` [Example 52, (S)—N-(2-methoxy-5-(4-methyl-8-((tetrahydrofuran-3-yl)oxy)quinazolin-6-yl)pyridin-3-yl)methanesulfonamide] the same measures were 8.68 and 6.17.
Take `COc1ncc(-c2cc(OCC3CCOCC3)c3ncnc(C)c3c2)cc1NS(=O)(=O)c1ccc(F)cc1F` [Example 53, N-(2-methoxy-5-(4-methyl-8-((tetrahydro-2H-pyran-4-yl)methoxy)quinazolin-6-yl)pyridin-3-yl)-2,4-difluorobenzenesulfonamide]: the values for the pIC50 in assay [1] and in assay [2] were 9.14 and 7.42, respectively.
On the same counts, the results for `COc1ncc(-c2cc(OC3CCCCC3)c3ncnc(C)c3c2)cc1NS(=O)(=O)c1ccc(F)cc1F` [Example 55, N-(5-(8-(cyclohexyloxy)-4-methylquinazolin-6-yl)-2-methoxypyridin-3-yl)-2,4-difluorobenzenesulfonamide] are 8.77 and 7.01.
Consider `COc1ncc(-c2cc(OC3CCCC3)c3ncnc(C)c3c2)cc1NS(=O)(=O)c1ccc(F)cc1F` [Example 56, N-(5-(8-(cyclopentyloxy)-4-methylquinazolin-6-yl)-2-methoxypyridin-3-yl)-2,4-difluorobenzenesulfonamide], for which the values for the pIC50 in assay [1] and in assay [2] were 9.04 and 7.14, respectively.
`COc1ncc(-c2cc(OC3CCC(F)(F)CC3)c3ncnc(C)c3c2)cc1NS(=O)(=O)c1ccc(F)cc1F` [Example 57, N-(5-(8-((4,4-difluorocyclohexyl)oxy)-4-methylquinazolin-6-yl)-2-methoxypyridin-3-yl)-2,4-difluorobenzenesulfonamide]: the results for the pIC50 in assay [1] and in assay [2] were 8.77 and 6.35, respectively.
On the same counts, the results for `COc1ncc(-c2cc(OC3CCOC(C)(C)C3)c3ncnc(C)c3c2)cc1NS(=O)(=O)c1ccc(F)cc1F` (centres unmarked) [Example 58, N-(5-(8-((2,2-dimethyltetrahydro-2H-pyran-4-yl)oxy)-4-methylquinazolin-6-yl)-2-methoxypyridin-3-yl)-2,4-difluorobenzenesulfonamide] are 9.00 and 7.25.
